In series [1] the test system is CSF-1. In words: Plasma CSF-1 biomarker in rats, Example 2 (po bid 5 days). Type of series: in vivo, rat. The note with it: 5 mg/kg po bid, 5 consecutive days. As for the experimental part: (§1) Groups of female Sprague Dawley rats (n=5) were orally administered 5 or 15 mg/kg of COMPOUND 2 or 40 mg/kg COMPOUND 1 twice per day for 5 consecutive days to characterize compound tolerability. Additional groups of rats, treated with vehicle or 40 mg/kg COMPOUND 1, were terminated one hour after the a.m. dose on Days 1 and 3 for interim analysis of various parameters. Post-mortem analysis of all treated animals included standard necropsy with liver histology evaluation as well as standard hematology and serology. None of the animals were found dead or were euthanized (moribund) prior to scheduled termination. None of the treatments affected body weight or the organ:body weight ratio of selected organs (i.e., liver, thymus, spleen & uterus). […] Both compounds, at the highest dose tested, decreased the number of macrophages in the uterus (up to ˜60% for COMPOUND 2) on Day 5 however, this parameter was highly variable.
On Day 0, the rats were ear tagged, randomized into the treatment groups (Groups 1 & 4: n=15, Groups 2 & 3: n=5), weighed and treated (po, bid) with either vehicle (20% HPbCD) or the test articles as delineated in Table 2 (Allocation of Treatment Groups).
(§2) On Days 1 & 3, one hour after a.m. dose, five rats from Groups 1 and 4 were euthanized using CO2 asphyxiation and exsanguinated via cardiac puncture. Blood samples (˜500 μL) were transferred to separate ethylenediaminetetraacetic acid (EDTA) microtainers and a complete blood count (CBC) was conducted using the Advia 120 Hematology System (Bayer Diagnostics, Tarrytown, N.Y.). Additional blood samples were transferred to separate microtainers (with or without anticoagulant) and processed for biomarker (i.e., MCSF-1) and serologic (i.e., AST/ALT) analysis. The liver and thymus were weighed and discarded. The spleens were weighed and zap-frozen and the uteri (without ovaries attached) were weighed and fixed in 10% buffered formalin. The macrophage content of the uterus was determined immunohistochemically using a macrophage-specific (ED-1) antibody.
On Day 5, rats were euthanized using carbon dioxide and exsanguinated via cardiac puncture. Blood samples (˜500 μL) were collected and processed as described above for CBC, biomarker analysis and serology. The liver, spleen, thymus and uterus (without ovaries attached) were isolated, weighed and fixed in buffered formalin. The right knee with femur attached was isolated, trimmed and fixed in formalin. The left femur was isolated for determination of bone marrow cell counts. Liver histopathology was also conducted.
Differences between treated and control groups were analyzed statistically by ANOVA with a Dunnett's Multiple Comparison post-test. (p value; *:<0.05, **:<0.01).

Series [2] has as its system ED-1 positive macrophages in the uterus. In words: Macrophage content of the uterus (ED-1 immunohistochemistry) in rats, Example 2. Type of series: in vivo, rat. The note with it: Day 5. The method, then:
as §1, §2
On Day 5, rats were euthanized using carbon dioxide and exsanguinated via cardiac puncture. […]
Differences between treated and control groups were analyzed statistically by ANOVA with a Dunnett's Multiple Comparison post-test. […]

The nature of series [3]: Tolerability in rats, Example 2. The note with it: 5 or 15 mg/kg COMPOUND 2 or 40 mg/kg COMPOUND 1, po bid, 5 consecutive days. In kind it is in vivo. As for the experimental part: as §1, with “variable. […]” for “variable.”
On Days 1 & 3, one hour after a.m. dose, five rats from Groups 1 and 4 were euthanized using CO2 asphyxiation and exsanguinated via cardiac puncture. […] The macrophage content of the uterus was determined immunohistochemically using a macrophage-specific (ED-1) antibody. […]

Series [4] in a line: Plasma compound levels in rats dosed 4 days, Examples 3 and 4. In kind it is in vivo, rat. Conditions: 2 hrs after final dose, individual animals; for concentration at 2 h: female, Sprague Dawley, rat, plasma, oral. As for the experimental part: Method: Female Sprague Dawley Rats (150 to 200 g BW) from Charles River were administered vehicle or COMPOUND 3 at 10 and 40 mg/kg p.o. bid for 4 days. On the fifth day, a final dose was given and the animals were sacrificed 2 hrs later. Rats were euthanized using CO2 asphyxiation and exsanguinated via cardiac puncture. An aliquot of blood ([…]) was transferred to an EDTA tube and processed for plasma and for determination of plasma compound and CSF-1 biomarker levels.

In series [5] the test system is CSF-1. In words: Plasma CSF-1 in rats dosed 4 days, Examples 3 and 4 (mouse CSF-1 ELISA). In kind it is in vivo, rat. The note with it: for CSF-1 levels elevated: vs vehicle; for CSF-1, pg/ml, Mean (SEM) / Plasma CSF-1, pg/ml, Mean: group mean; for CSF-1, pg/ml, Mean (SEM) / CSF-1, pg/ml (plasma): vehicle mean 127; for CSF-1, pg/ml (plasma) / Plasma CSF-1, pg/ml: individual animals; for Plasma CSF-1, pg/ml, Mean / Plasma CSF-1, pg/ml: vehicle mean 124. As for the experimental part:
(§3) Pharmacodynamic activity in rats was determined to identify appropriate doses for efficacy studies. Circulating CSF-1 is cleared by sinusoidal macrophages when bound and internalized by FMS in a process that is partly dependent on FMS kinase activity. CSF-1 levels rise when FMS is inhibited, or when FMS inhibition reduces the number/function of macrophages. Uterine macrophages are short-lived and FMS-dependent. Quantitation of uterine macrophage density and plasma CSF-1 levels thereby provided pharmacodynamic endpoints measurable in rats following 4 days of dosing.
(§4) […] On the fifth day, a final dose was given and the animals were sacrificed 2 hrs later. Rats were euthanized using CO2 asphyxiation and exsanguinated via cardiac puncture. An aliquot of blood ([…]) was transferred to an EDTA tube and processed for plasma and for determination of plasma compound and CSF-1 biomarker levels.
(In general: An ELISA detects its analyte on a solid surface through an enzyme-linked reagent.)

The subject of the next series is uterine macrophages. In words: Uterine ED1 stained area (uterine macrophage density) in rats dosed 4 days, Examples 3 and 4. In kind it is in vivo, rat. Conditions: for Uterine macrophages depleted: vs vehicle; for Uterine ED1 area/HPF, Mean (SEM) / Uterine ED1 area/HPF, Mean: group mean; for Uterine ED1 area/HPF: individual animals. As for the experimental part: as §3, §4
Spleens, livers and uteri (without ovaries) were isolated and weighed and uteri were fixed in formalin. Uteri sections were stained for ED1 and ED-1 stained area (arbitrary units) at 200× magnification was determined using Image-Pro Plus software.

Series [6] in a line: Plasma compound levels in rats dosed 4 days, Examples 3 and 4. The note with it: for concentration at 2 h: rat, plasma. In kind it is in vivo, rat.
Where [7] appears, read: 10 mg/kg p.o. bid 4 days, vehicle mean 9808.
Where [8] appears, read: 40 mg/kg p.o. bid 4 days, vehicle mean 9808.
[9] abbreviates: 10 mpk, dosed 4 days, vehicle mean 2057.
The mark [10] stands for this setting: 20 mpk, dosed 4 days, vehicle mean 2057.
[11] abbreviates: 50 mpk, dosed 4 days, vehicle mean 2057.

SMILES strings stand for the structures. Where “and” joins values, the source holds several entries; their conditions need not be identical. Equal entries are not always repeated. Where two headings read alike, the source gives them in different places. Marks after values point to notes of the source that are not given here.

The results in this text go back to patent US20090148883A1, “BIOMARKER FOR ASSESSING RESPONSE TO FMS TREATMENT” (priority 2007, published 2009).

Consider `Cc1ncc(-c2c(C3=CCCCC3)c3cc(C#N)ccc3[nH]c2=O)[nH]1` [COMPOUND 2], for which, in the series on CSF-1 [1], the “Effect on plasma concentrations of CSF-1” value was “failed to significantly affect plasma concentrations of CSF-1”. For the same compound, the “Effect on macrophage content of the uterus” value in series [2] (highest dose tested (COMPOUND 2 15 mg/kg, COMPOUND 1 40 mg/kg po bid), highly variable) is given as “significant effect”. In series [2] (up to, dose dependent (5 and 15 mg/kg po bid)), the “Decrease in number of ED-1 positive macrophages per field in the uterus” value is about 60%. In addition, the “Effect on appearance, behavior, body weight or organ:body weight ratio (liver, spleen, thymus)” value in series [3] is “did not have an observable effect”.

Take `CONC(=O)c1cn(-c2ccc3c(c2)CCC3)c2nc(Nc3ccc(C4CCN(C)CC4)cc3)ncc2c1=O` [COMPOUND 3]: the “Compound, ng/ml (plasma)” value in series [4] (10 mg/kg p.o. bid 4 days) was 2080 ng/mL and 2800 ng/mL; in series [4] (40 mg/kg p.o. bid 4 days) it was 5060 ng/mL and 5730 ng/mL. Further, the concentration at 2 h in series [4] (10 mg/kg, 10 mg/kg p.o. bid 4 days) was 2730 ng/mL; in series [4] (40 mg/kg, 40 mg/kg p.o. bid 4 days) it was 5320 ng/mL; in series [6] (female, Sprague Dawley, oral, 10 mg/kg, 10 mg/kg p.o. bid 4 days, 2 hrs after final dose, group mean, read-out: Compound, ng/ml, Mean (SEM)) it was 2540 ng/mL; in series [6] (female, Sprague Dawley, oral, 40 mg/kg, 40 mg/kg p.o. bid 4 days, 2 hrs after final dose, group mean, read-out: Compound, ng/ml, Mean (SEM)), 5370 ng/mL. Moreover, the CSF-1 levels elevated in the series with CSF-1 [5] (10 mg/kg p.o. bid 4 days) is reported as 4.5 fold; in the series on CSF-1 [5] (40 mg/kg p.o. bid 4 days), 5.5 fold. The “CSF-1, pg/ml, Mean (SEM)” value with CSF-1 [5] (10 mg/kg p.o. bid 4 days) is 570 pg/mL; in the series with CSF-1 [5] (40 mg/kg p.o. bid 4 days) it was 698 pg/mL. The “CSF-1, pg/ml (plasma)” value is 651 pg/mL and 482 pg/mL and 577 pg/mL in the series on CSF-1 [5] (10 mg/kg p.o. bid 4 days); 548 pg/mL and 746 pg/mL and 801 pg/mL with CSF-1 [5] (40 mg/kg p.o. bid 4 days). Moreover, the Uterine macrophages depleted stood at 51% in the series with uterine macrophages (10 mg/kg p.o. bid 4 days) and 81% in the series on uterine macrophages (40 mg/kg p.o. bid 4 days). For the same compound, the “Uterine ED1 area/HPF, Mean (SEM)” value worked out at 4855 arbitrary units in the series with uterine macrophages (setting [7]) and 1836 arbitrary units in the series on uterine macrophages (setting [8]). Besides, the “Uterine ED1 area/HPF” value in the series on uterine macrophages (setting [7]) was 4919 arbitrary units and 7609 arbitrary units and 2037 arbitrary units; in the series on uterine macrophages (setting [8]), 929 arbitrary units and 1721 arbitrary units and 2858 arbitrary units. Further, in the series with uterine macrophages (40 mg/kg p.o. bid 4 days), the “Morphology of uterine macrophages (ED-1 staining)” value is listed as “did not have the normal reticulated morphology”.

Regarding `CC1(C)CC=C(c2nc(C3CC(C)(C)OC(C)(C)C3)ccc2NC(=O)c2ncc(C#N)[nH]2)CC1` [COMPOUND 4], the CSF-1 levels elevated with CSF-1 [5] (10 mpk, dosed 4 days) came out at 28%; in the series with CSF-1 [5] (20 mpk, dosed 4 days), 79%; with CSF-1 [5] (50 mpk, dosed 4 days), 363%. Further, the “Plasma CSF-1, pg/ml, Mean” value is on record as 159* pg/ml with CSF-1 [5] (10 mpk, dosed 4 days, p < 0.05 vs. Vehicle); 211** pg/ml with CSF-1 [5] (20 mpk, dosed 4 days, p < 0.005 vs. Vehicle); 574** pg/ml in the series on CSF-1 [5] (50 mpk, dosed 4 days, p < 0.005 vs. Vehicle). The “Plasma CSF-1, pg/ml” value with CSF-1 [5] (10 mpk, dosed 4 days) is 152 pg/mL and 165 pg/mL and 139 pg/mL and 157 pg/mL and 184 pg/mL; in the series with CSF-1 [5] (20 mpk, dosed 4 days) it was 211 pg/mL and 163 pg/mL and 196 pg/mL and 238 pg/mL and 249 pg/mL; with CSF-1 [5] (50 mpk, dosed 4 days), 540 pg/mL and 696 pg/mL and 506 pg/mL and 585 pg/mL and 541 pg/mL. For the same compound, in the series with CSF-1 [5] (rats dosed 4 days), the “Dose with a threshold level of activity for CSF-1 elevation and uterine macrophage depletion” value turned out to be 10 mg/kg. Moreover, the Uterine macrophages depleted in the series with uterine macrophages (10 mpk, dosed 4 days) is on record as 27%; in the series with uterine macrophages (20 mpk, dosed 4 days), 28%; with uterine macrophages (50 mpk, dosed 4 days) it was 44%. Further, the “Uterine ED1 area/HPF, Mean” value amounted to 1501 arbitrary units with uterine macrophages (setting [9]), 1476 arbitrary units with uterine macrophages (setting [10]) and 1149 arbitrary units in the series with uterine macrophages (setting [11]). Further, the “Uterine ED1 area/HPF” value in the series with uterine macrophages (setting [9]) was 1003 arbitrary units and 1233 arbitrary units and 1174 arbitrary units and 1021 arbitrary units and 3075 arbitrary units; in the series on uterine macrophages (setting [10]), 1419 arbitrary units and 1995 arbitrary units and 1164 arbitrary units and 1560 arbitrary units and 1244 arbitrary units; in the series on uterine macrophages (setting [11]) it was 681 arbitrary units and 1431 arbitrary units and 2955 arbitrary units and 585 arbitrary units and 94 arbitrary units. In addition, the “Plasma compound, ng/ml, Mean” value in series [6] (10 mpk, dosed 4 days, 2 hours after last dose, group mean) is reported as 1414 (186) ng/ml; in series [6] (20 mpk, dosed 4 days, 2 hours after last dose, group mean) it was 2636 (172) ng/ml; in series [6] (50 mpk, dosed 4 days, 2 hours after last dose, group mean) it was 6612 (881) ng/ml. For the same compound, the “Plasma compound” value in series [6] (10 mpk, dosed 4 days, 2 hours after last dose, individual animals) is 968 ng/mL and 1560 ng/mL and 1790 ng/mL and 1680 ng/mL; in series [6] (20 mpk, dosed 4 days, 2 hours after last dose, individual animals), 2670 ng/mL and 2320 ng/mL and 2470 ng/mL and 3210 ng/mL; in series [6] (50 mpk, dosed 4 days, 2 hours after last dose, individual animals) it was 6090 ng/mL and 4800 ng/mL and 9390 ng/mL and 7110 ng/mL. For the same compound, the concentration at 2 h in series [6] (10 mpk, dosed 4 days, 2 hours after last dose, group mean, read-out: Plasma compound, ng/ml, Mean) was found to be 1410 ng/mL; in series [6] (10 mpk, dosed 4 days, 2 hours after last dose, individual animals, read-out: Plasma compound), 1070 ng/mL; in series [6] (20 mpk, dosed 4 days, 2 hours after last dose, individual animals, read-out: Plasma compound), 2510 ng/mL; in series [6] (50 mpk, dosed 4 days, 2 hours after last dose, group mean, read-out: Plasma compound, ng/ml, Mean), 6610 ng/mL; in series [6] (50 mpk, dosed 4 days, 2 hours after last dose, individual animals, read-out: Plasma compound), 5670 ng/mL; in series [6] (dosed 4 days, 2 hours after last dose, group mean, read-out: Plasma compound, ng/ml, Mean) it was 2640 ng/mL.
